This is an account of results in article PMC3310290 (Bioconjugate Chemistry, 2012).

Test [1] addresses T1, fibrin (Homo sapiens, UniProt P02671+P02675+P02679).
T1 sequence (P02671 36-866 limits assumed): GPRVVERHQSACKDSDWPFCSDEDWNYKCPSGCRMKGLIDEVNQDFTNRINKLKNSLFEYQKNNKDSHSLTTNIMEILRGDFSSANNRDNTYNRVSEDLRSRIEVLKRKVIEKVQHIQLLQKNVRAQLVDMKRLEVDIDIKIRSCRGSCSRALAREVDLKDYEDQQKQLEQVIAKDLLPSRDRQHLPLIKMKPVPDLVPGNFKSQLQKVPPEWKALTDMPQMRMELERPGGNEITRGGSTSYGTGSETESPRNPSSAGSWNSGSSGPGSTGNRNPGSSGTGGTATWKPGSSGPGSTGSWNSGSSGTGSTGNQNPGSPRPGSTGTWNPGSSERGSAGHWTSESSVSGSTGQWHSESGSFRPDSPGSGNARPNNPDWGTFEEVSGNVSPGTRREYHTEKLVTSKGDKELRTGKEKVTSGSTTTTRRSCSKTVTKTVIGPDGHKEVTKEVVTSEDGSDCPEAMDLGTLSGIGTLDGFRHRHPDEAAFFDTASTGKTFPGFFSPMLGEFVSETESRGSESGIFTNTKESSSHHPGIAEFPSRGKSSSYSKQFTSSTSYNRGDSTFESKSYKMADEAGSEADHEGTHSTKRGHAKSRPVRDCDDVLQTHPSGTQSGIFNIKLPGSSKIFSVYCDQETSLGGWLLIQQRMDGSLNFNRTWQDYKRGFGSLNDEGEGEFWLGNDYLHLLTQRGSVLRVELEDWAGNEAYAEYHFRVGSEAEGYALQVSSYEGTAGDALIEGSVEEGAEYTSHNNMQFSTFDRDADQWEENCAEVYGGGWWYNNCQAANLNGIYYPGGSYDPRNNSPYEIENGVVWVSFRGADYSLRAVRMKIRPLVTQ
T1 sequence (P02675 45-491 limits assumed): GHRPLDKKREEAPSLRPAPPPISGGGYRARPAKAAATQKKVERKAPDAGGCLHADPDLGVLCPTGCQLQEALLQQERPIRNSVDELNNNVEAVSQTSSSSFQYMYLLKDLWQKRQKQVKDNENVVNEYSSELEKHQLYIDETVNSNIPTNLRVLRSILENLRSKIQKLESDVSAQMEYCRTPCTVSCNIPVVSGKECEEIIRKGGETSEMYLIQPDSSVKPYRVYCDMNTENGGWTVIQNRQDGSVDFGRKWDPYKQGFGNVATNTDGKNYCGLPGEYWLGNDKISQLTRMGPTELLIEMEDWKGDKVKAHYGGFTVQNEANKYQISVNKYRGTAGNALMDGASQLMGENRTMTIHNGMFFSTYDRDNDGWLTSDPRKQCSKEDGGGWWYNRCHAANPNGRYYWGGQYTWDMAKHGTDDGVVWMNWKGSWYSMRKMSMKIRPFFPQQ
T1 sequence (P02679 27-433 limits assumed): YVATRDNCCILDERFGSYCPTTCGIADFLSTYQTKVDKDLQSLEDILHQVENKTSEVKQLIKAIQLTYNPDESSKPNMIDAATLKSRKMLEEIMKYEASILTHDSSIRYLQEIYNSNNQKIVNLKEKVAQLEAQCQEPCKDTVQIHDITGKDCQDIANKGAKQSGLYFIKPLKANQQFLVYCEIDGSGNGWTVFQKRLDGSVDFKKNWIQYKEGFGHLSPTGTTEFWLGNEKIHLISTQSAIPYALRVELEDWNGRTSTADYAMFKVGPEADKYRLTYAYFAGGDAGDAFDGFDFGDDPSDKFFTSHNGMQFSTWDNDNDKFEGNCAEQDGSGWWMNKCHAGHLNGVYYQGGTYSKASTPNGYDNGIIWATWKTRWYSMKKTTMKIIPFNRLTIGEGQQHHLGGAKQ
Nature of the test: Solvent water 1H relaxation rate. The test is classed as physicochemical. To be noted: 30 μM fibrin, 0.47T, 37°C.

The target in test [2] is T1, fibrin. To be noted: ref [15]; cited from earlier work.
Test [3] has as its target T2, fibrinogen (Homo sapiens, UniProt P02671+P02675+P02679).
T2 sequence (P02671 20-629 limits assumed): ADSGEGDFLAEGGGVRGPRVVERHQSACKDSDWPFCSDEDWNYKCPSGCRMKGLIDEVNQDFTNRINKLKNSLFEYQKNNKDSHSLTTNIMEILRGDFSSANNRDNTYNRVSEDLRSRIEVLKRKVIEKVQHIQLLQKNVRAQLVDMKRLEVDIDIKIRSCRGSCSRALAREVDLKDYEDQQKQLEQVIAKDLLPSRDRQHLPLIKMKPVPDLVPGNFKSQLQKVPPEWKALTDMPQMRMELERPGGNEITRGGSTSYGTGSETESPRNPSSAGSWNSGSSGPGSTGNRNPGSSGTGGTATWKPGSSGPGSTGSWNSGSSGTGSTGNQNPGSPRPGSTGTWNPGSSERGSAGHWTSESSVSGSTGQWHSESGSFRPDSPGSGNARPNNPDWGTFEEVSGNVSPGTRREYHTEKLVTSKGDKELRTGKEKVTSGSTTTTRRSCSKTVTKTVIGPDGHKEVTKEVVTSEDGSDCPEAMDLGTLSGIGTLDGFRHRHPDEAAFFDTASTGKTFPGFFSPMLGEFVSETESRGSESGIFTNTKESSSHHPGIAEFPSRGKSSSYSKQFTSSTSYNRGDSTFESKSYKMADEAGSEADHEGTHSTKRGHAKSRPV
T2 sequence (P02675 31-491): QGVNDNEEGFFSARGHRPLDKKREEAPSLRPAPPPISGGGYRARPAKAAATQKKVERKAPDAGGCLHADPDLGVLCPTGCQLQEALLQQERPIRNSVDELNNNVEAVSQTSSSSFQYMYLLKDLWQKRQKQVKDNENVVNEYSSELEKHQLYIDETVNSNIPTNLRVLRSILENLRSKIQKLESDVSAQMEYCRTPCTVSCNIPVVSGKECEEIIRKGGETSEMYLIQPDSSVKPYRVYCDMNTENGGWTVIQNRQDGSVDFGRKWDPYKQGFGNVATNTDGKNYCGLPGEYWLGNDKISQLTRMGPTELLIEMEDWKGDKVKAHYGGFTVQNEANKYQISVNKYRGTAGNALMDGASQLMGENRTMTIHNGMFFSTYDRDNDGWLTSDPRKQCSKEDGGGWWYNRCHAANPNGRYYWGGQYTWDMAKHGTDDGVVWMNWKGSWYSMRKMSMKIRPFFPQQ
T2 sequence (P02679 27-433 limits assumed): T1 sequence (P02679 27-433 limits assumed)
Kind of test: Fluorescence polarization, binding to fibrinogen. To be noted: fluorescence anisotropy. (In fluorescence polarisation assays a small probe gives low polarisation when free and higher when bound to something large.)

Positions of bridges follow the written chain, without caps; N, C: chain ends. Residues, ends and D or L forms follow the SMILES beside them. *: point of attachment. 5FAM = O=C1OC2(c3ccc(O)cc3Oc3cc(O)ccc32)c2ccc(C(=O)*)cc21; DTPA = O=C(O)CN(CCN(CC(=O)O)CC(=O)O)CCN(CC(=O)O)CC(=O)*; Ahx = NCCCCCC(=O)O

`O=C([O-])CN(CCN(CC(=O)[O-])CC(=O)O)CCN(CC(=O)[O-])CC(=O)O.[Gd+3]` [GdDTPA, diethylenetriaminepentaaceto gadolinium(III), reference compound]: the “enhancement of 1/T1 in fibrin gel compared to buffer” value in test [1] is given as “no enhancement of 1/T1”.

Take “DTPA-GYLCGDYTLCPD-NH2 ({DTPA}-GYLCGDYTLCPD-NH2; not fully specified (bridges); cysteine pairing not given here)”: in test [2], the “fibrin binding (in words)” value is given as “No measurable fibrin binding”.

In the case of `CC[C@H](C)[C@H](NC(=O)[C@H](Cc1c[nH]c2ccccc12)NC(=O)[C@@H]1CSSC[C@H](NC(=O)[C@H](CCC(=O)O)NC(=O)[C@H](Cc2c[nH]c3ccccc23)NC(=O)[C@H](CCC(N)=O)NC(=O)CCCCCNC(=O)c2ccc3c(c2)C(=O)OC32c3ccc(O)cc3Oc3cc(O)ccc32)C(=O)N2CCC[C@H]2C(=O)N[C@@H](Cc2ccc(O)cc2)C(=O)NCC(=O)N[C@@H](CC(C)C)C(=O)N1)C(=O)N[C@@H](CCC(N)=O)C(N)=O` [Tn6-2b-Fl, Fluor-Aca-QWECPYGLCWIQ] ({5FAM-Ahx}-QWECPYGLCWIQ-NH2; disulfide 4-9), the “fibrinogen binding weaker than to DD(E)” value in test [3] is 400 fold.
